# Patent EP0294814B1, “Treating agents for renal diseases” (DAIICHI PHARMACEUTICAL CO., LTD., priority 1987, dated 1988)
# Counter-ions that a name gives are not always drawn.
# Experiments:
# thromboxane A₂ = settings: known from prior art; cited from earlier work
# [1] = system: diabetic nephropathy or glomerulonephritis; settings: applied to diabetic nephropathy or glomerulonephritis, literature reports; cited from earlier work
# [2] = system: Ischemic Insufficient Kidney; experiment: Ischemic renal insufficiency model: renal function; format: in vivo, SD rat; settings: 10 mg/kg intraperitoneally 30 minutes before ligature of renal arteries; 24 hours after reperfusion; mean±S.E.
# Method: An abdominal incision was made in a SD vale rat weighing 300 to 450 g under pentobarbital anesthesia, and renal arteries of both sides were ligated with a clamp for 40 minutes and then reopened to prepare an animal suffering from isochemic renal insufficiency.
# The hydrochloride hemihydrate of Compound A was dissolved in physiological saline, and administered intraperitoneally to the test animal at a dose level of 10 mg/2 ml/kg 30 minutes before the ligature of the renal arteries. The control group received the same volume of physiological saline.
# After the blood flow of the renal arteries was restored, the animal was fed on foods and tap water ad lib. for 24 hours. The clearance values of inulin and p-aminohippuric acid were determined in the same manner as described in Example 2.
# Hydronephrotic Kidney = experiment: Hydronephrosis model: clearance test; format: in vivo, SD male rat; settings: Normal Kidney, 0.3 µg/min infused into renal artery, mean±S.E. of 5 cases
# Method: (§1) An abdominal incision was made in a SD male rat having a body weight of from 300 to 400 g under light anesthesia with diethyl ether. After the left urinary tract was ligated in the middle between the bladder and the kidney, the incision was closed, and the animal was fed on foods and tap water, ad lib.
# (§2) After 18 hours from the ligation of the urinary tract, a cannula was inserted in the urinary tracts on both sides, the right femoral artery and the right femoral vein for collection of blood samples, infusion of inulin and infusion of p-aminohippuric acid, respectively, under Inactin anesthesia. Physiological saline containing 20 mg/ml of inulin and physiological saline containing 4 mg/ml of p-aminohippuric acid were continuously infused each at a rate of 0.4 ml/min in a 1/20 amount of the body weight. On confirming that the urinary output became constant after 50 minutes from the start of the infusion, urine was collected separately from the right and left urinary tracts at intervals of 20 minutes, and blood samples were obtained at the middle between urine collections. Immediately preceding the start of urine collection, infusion of physiological saline at a rate of 25 µl/min into the left femoral artery was instituted and continued for 40 minutes. Thereafter, a solution of a hydrochloride hemihydrate of Compound A in physiological saline was continuously infused at a dose level of 0.3 µg/25 µl/min/rat for 40 minutes into the inlet of the renal artery through a retrograde cannula inserted from the left femoral artery. Inulin levels in urine and in blood were determined according to the anthrone method (H.H. Hilger et al., Pflügers Arch Physiol., Vol. 267, 218 (1958)), and p-aminohippuric acid levels in urine and blood were determined according to the method of Smith et al. (H.W. Smith et al., J. Clin. Invest., Vol. 24, 388 (1945)), to calculate clearance values of inulin and p-aminohippuric acid.
# [3] = Hydronephrosis model: clearance test; format: in vivo, SD male rat; settings: Normal Kidney, 0.3 µg/min infused into renal artery, mean±S.E. of 5 cases
# Method: as §1, §2
# [4] = Diabetic nephropathy model: influence on body weight of SHR and diabetic SHR; format: in vivo, rat; settings: SHR
# Method: (§3) 5-Week old spontaneous hypertensive male rats (SHR) and normotensive Wister Kyoto rats (WKY), both available from Nippon Charles River, were used. Streptozotocin (STZ) was dissolved in a 0.1M citrate buffer solution (pH 4.5) and injected to the tail vein of the rat at a dose level of 50 mg/kg to prepare a diabetic rat. For control, the rat received 1 ml/kg of the citrate buffer solution alone through administration to the tail vein. After one week from the STZ administration, blood was taken from the tail vein of the unanesthetized rat, and the blood sugar level was measured. Those rats having a blood sugar level of […] or higher were used as diabetic rats. […]
# Diabetic SHR = experiment: Diabetic nephropathy model: excretion of protein, γ-GTP and NAβG in the urine; format: in vivo, rat; settings: after 4 months of administration
# Method: as §3
# After 4 months from the start of the administration of Compound A, urine was collected for 24 hours, and the protein, γ-GTP activity and NAβG activity in the urine were determined by the method of Kinsbury et al., the method of using a commercially available kit (γ-GTP Test Pack, produced by Sankyo Co., Ltd.), and the method of Hasebe et al., respectively.
# rats = experiment: Acute toxicity in rats; format: in vivo
# Text: Acute toxicities of a hydrochloride hemihydrate of Compound A in rats through oral administration or intravenous injection were as follows.
smiles,measurement,setting,value
"Cl.O=C(O)/C=C/c1ccc(Cn2ccnc2)cc1 [(E)-3-(4-(1-Imidazolylmethyl)phenyl)propenoic acid hydrochloride, reference compound]",inhibition of the synthesis of thromboxane A₂,thromboxane A₂,inhibit the synthesis of thromboxane A₂
same,effect in treatment of renal diseases,[1],not satisfactory
"O=C(O)c1ccc2c(c1)CCC(Cn1ccnc1)C2 (centres unmarked) [Compound A, 6-(1-imidazolylmethyl)-5,6,7,8-tetrahydronaphthalene-2-carboxylic acid]",inhibition of the synthesis of thromboxane A₂,thromboxane A₂,inhibit the synthesis of thromboxane A₂
same,Inulin Clearance,[2],0.32± 0.05 ml/min/kidney
same,Urinary Output,[2],11.30± 1.53 µl/min/kidney
same,p-Aminohippuric Acid Clearance,[2],1.01±0.17 ml/min/kidney
same,Urinary Output,Hydronephrotic Kidney,7.47± 0.83 µℓ/min/ kidney
same,p-Aminohippuric Acid Clearance,Hydronephrotic Kidney,5.95±0.50 ml/min/kidney
same,Inulin Clearance,[3],1.77± 0.13 ml/min/ kidney
same,Body Weight (Mean±S.E.),"[4]; 1 mg/kg/day, 1 Month after start of admin.",280.3 ± 4.0 g
same,Body Weight (Mean±S.E.),"[4]; 1 mg/kg/day, 5 Months after start of admin.",392.4 ± 5.6 g
same,Body Weight (Mean±S.E.),"[4]; 10 mg/kg/day, 1 Month after start of admin.",278.7 ± 5.3 g
same,Body Weight (Mean±S.E.),"[4]; 10 mg/kg/day, 5 Months after start of admin.",385.3 ± 7.5 g
same,Excretion in Urine for 24 h NAβG,Diabetic SHR; 1 mg/kg/day oral,0.536± 0.086 mg/100 g B.W.
same,Excretion in Urine for 24 h Protein,Diabetic SHR; 1 mg/kg/day oral,6.82± 1.56 mg/100 g B.W.
same,Excretion in Urine for 24 h γ-GTP,Diabetic SHR; 1 mg/kg/day oral,2.83± 0.32 U/100 g B.W.
same,Excretion in Urine for 24 h NAβG,Diabetic SHR; 10 mg/kg/day oral,0.412± 0.056 mg/100 g B.W.
same,Excretion in Urine for 24 h Protein,Diabetic SHR; 10 mg/kg/day oral,4.00± 0.59 mg/100 g B.W.
same,Excretion in Urine for 24 h γ-GTP,Diabetic SHR; 10 mg/kg/day oral,2.45± 0.22 U/100 g B.W.
"O=C(O)c1ccc2c(c1)CCC(Cn1ccnc1)C2 (centres unmarked) [hydrochloride hemihydrate of Compound A, 6-(1-imidazolylmethyl)-5,6,7,8-tetrahydronaphthalene-2-carboxylic acid]",LD₅₀,"rats; Female rats, i.v.",783 (i.v.) mg
same,LD₅₀,"rats; Female rats, p.o.",1994 (p.o.) mg
same,LD₅₀,"rats; Male rats, i.v.",807 mg
same,LD₅₀,"rats; Male rats, p.o.",2438 mg
